Patent publication US5166155A, “Quinoxaline-2,3-dione compounds and their preparation and use” (Novo Nordisk A/S, priority 1990, dated 1992)

Tests used:
[1] = test system: NMDA receptor/ionophor complex, allosteric modulatory (glycine) site; conditions: literature; cited from earlier work
[2] = test system: NMDA stimulated [3H]-GABA release; assay: Inhibition of NMDA stimulated [3H]-GABA release from cultured mouse cerebral cortex interneurons (Test 3); assay type: cell-based; conditions: 3 μg/ml NMDA, 37° C.
Procedure: The NMDA antagonistic properties of the compounds is illustrated by determining their capability to antagonize NMDA stimulated [^3 H]-GABA release from cultured mouse cortex neurons. The NMDA antagonistic activity of the compounds may be shown by determining the IC50 value, which represents the concentration (μM) which inhibits 50% of NMDA induced [^3 H]-GABA release.
Release experiments are performed using the model described by Drejer et al. (Life Sci. 38, 2077 (1986)). To cerebral cortex interneurons cultured in petri dishes (30 mm) are added 100 μg/ml 3-vinyl-GABA one hour before the experiment in order to inhibit degradation of GABA in the neurons. 30 min. before the experiment 5 μCi [^3 H]-GABA is added to each culture and after this preloading period the cells are washed twice with HEPES buffered saline (HBS) containing 10 mM HEPES, 135 mM NaCl, 5 mM KCl, 0.6 mM MgSO4, 1.0 mM CaCl2 and 6 mM D-glucose; pH 7 and placed in a superfusion system. This system consists of a peristaltic pump continuously delivering thermostated 37° C. superfusion medium from a reservoir to the top of a slightly tilted petri dish. The cell monolayer at the bottom of the dish is covered with a piece of nylon mesh to facilitate dispersion of medium over the cell layer. The medium is continuously collected from the lower part of the dish and delivered to a fraction collector. Initially, the cells are superfused with HBS for 15 min. (flow rate 2 ml/min.). Then cells are stimulated for 30 sec. every 4 min. by changing the superfusion medium from HBS to a corresponding medium containing NMDA and antagonist according to the following scheme:
Stimulation no. 1:3 μg/ml NMDA
Stimulation no. 2:3 μg/ml NMDA+0.3 μg/ml antagonist
Stimulation no. 3:3 μg/ml NMDA+3.0 μg/ml antagonist
The release of [^3 H]-GABA in the presence of NMDA is corrected for the mean basal release before and after stimulation. The stimulated release in the presence of antagonist is expressed relative to the stimulated release by NMDA alone and the IC50 value is calculated.

[3] = biological target: T1, glycine site of the NMDA receptor complex (Rattus norvegicus, UniProt P35439); assay: [3H]-glycine binding (Test 1); conditions: [3H]-glycine 10 nM, rat cerebral cortical membrane, 0° C., 10 min, pH 7.1
T1 construct: thawed rat cerebral cortical membrane homogenate; from tissue; host or cells: rat cerebral cortex, membrane homogenate
Procedure: The glycine site binding activity of these compounds of the present invention can be illustrated by determining their capability for displacing radioactively labelled glycine from the glycine site.
The displacement activity of the compounds may be shown by determining the IC50 value which represents the concentration (μM) which causes a displacement of 50% of the specific binding of [^3 H]-glycine.
1 ml of thawed rat cerebral cortical membrane homogenate in HEPES-Tris (5 mM) and MgCl2 (1 mM) pH 7.1 were incubated at 0° C. for 10 min. with 25 μl [^3 H]-glycine (10 nM final concentration) and the test compound and buffer. Non-specific binding was determined by incubating with D-serine (1 mM final concentration). The binding reaction was terminated by centrifugation at 15,000×g at 4° C. followed by washing of the pellet with three times 3 ml of ice-cold buffer. Bound radioactivity was measured by scintillation counting. IC50 was determined by Hill analysis of at least four concentrations of test compound.

[4] = biological target: T2, NMDA receptor glycine site (glycine enhanced [3H]-MK-801 binding) (Rattus norvegicus, UniProt P35439); assay: Antagonism of glycine enhanced [3H]-MK-801 binding (Test 2); conditions: Schild analysis; [3H]-MK-801 1 nM, glutamate 300 nM, rat cerebral membrane, 23° C., 60 min, pH 7.40
T2 construct: thawed and extensively washed rat cerebral membrane homogenate; from tissue; host or cells: rat cerebrum, extensively washed membrane homogenate
Procedure: The glycine antagonism is measured by determining the Ki value which represents the dissociation constant (μM) of the receptor-antagonist complex.
1 ml of thawed and extensively washed rat cerebral membrane homogenate in HEPES-NaOH (20 mM) pH 7.40 were incubated at 23° C. for 60 min. with 25 μl [^3 H]-MK-801 (1 nM final concentration), 25 μl glutamate (300 nM final concentration), test compound in concentrations corresponding to 0, 0.5, 2 and 5 times the IC50 value from the [^3 H]-glycine binding assay (test 1) for each concentration of glycine (10; 100; 1,000; 10,000 and 100,000 nM final concentration). The binding reaction was terminated by adding 5 ml of ice-cold buffer followed by rapid filtration through Whatman GF/C glass fiber filters and 5 ml wash with ice-cold buffer. Bound radioactivity was measured by scintillation counting. Ki values were determined by Schild analysis of the data using
log(dosis ration-1)=log[Inhibitor]-log(Ki).

[5] = test system: NMDA receptor; conditions: cited from earlier work

SMILES	IC50 [2] [nM]	IC50 [3] [nM]	Ki [4] [nM]	also measured
C[C@@H](N)C(=O)O [D-alanine]				agonist/antagonist activity at the glycine site [1]: strong agonist activity
COc1ccc2c(c1)n(O)c(=O)c(=O)n2CC(=O)O [Example 13, 1-Carboxymethyl-4-hydroxy-6-methoxyquinoxalin-2,3(1H,4H)-dione]	> 3750	8000		
CCCCCC(C(=O)O)n1c(=O)c(=O)[nH]c2cc(Br)ccc21 (centres unmarked) [Example 15, 1-((1-Carboxy)hexyl)-6-bromoquinoxaline-2,3(1H, 4H)-dione]	2640	587	49	
N[C@H](CO)C(=O)O [D-serine]				agonist/antagonist activity at the glycine site [1]: strong agonist activity
O=C(O)Cn1c(=O)c(=O)[nH]c2cc(Br)ccc21 [Example 3, 6-Bromo-1-carboxymethylquinoxaline-2,3(1H,4H)-dione]	505	544	127	
CCCC(C(=O)O)n1c(=O)c(=O)[nH]c2ccccc21 (centres unmarked) [Example 9, 1-((1-Carboxy)butyl)quinoxaline-2,3(1H,4H)-dione]	2860	5000	1900	
Cc1cc2[nH]c(=O)c(=O)n(CC(=O)O)c2cc1C [Example 5, 1-Carboxymethyl-6,7-dimethylquinoxaline-2,3(1H,4H)-dione]	509	554	212	
N[C@@H]1CONC1=O [D-cycloserine]				agonist/antagonist activity at the glycine site [1]: partial agonists
O=C1C[C@@H]2OCC=C3CN4CC[C@]56c7ccccc7N1[C@H]5[C@H]2[C@H]3C[C@H]46 [strychnine]				sensitivity of the glycine response to strychnine ([5]; cultured neurons, literature): insensitive
O=C(O)Cn1c(=O)c(=O)[nH]c2cc(Cl)cc(Cl)c21 [Example 22, 1-Carboxymethyl-6,8-dichloroquinoxaline-2,3(1H, 4H)-dione]		852		
O=C(O)Cn1c(=O)c(=O)[nH]c2cc(Cl)c(Cl)cc21 [Example 1, 1-Carboxymethyl-6,7-dichloroquinoxaline-2,3(1H,4H)-dione]	163	350	162	
NCC(=O)O [glycine]				effect on NMDA receptor agonist induced responses [5]: increase NMDA receptor agonist induced responses; glycine site binding affinity [1]: high affinity binding
O=C(O)Cn1c(=O)c(=O)[nH]c2cc([N+](=O)[O-])ccc21 [Example 7, 1-Carboxymethyl-6-nitroquinoxaline-2,3(1H,4H)-dione]		2000		
CC(C(=O)O)n1c(=O)c(=O)[nH]c2ccccc21 (centres unmarked) [Example 11, 1-((1-Carboxy)ethyl)quinoxaline-2,3(1H,4H)-dione]		3000	900	
N#Cc1cc2[nH]c(=O)c(=O)[nH]c2cc1[N+](=O)[O-] [CNQX, 6-cyano-7-nitroquinoxaline-2,3-dione]				agonist/antagonist activity at the glycine site [1]: weak antagonists
NC1CCN(O)C1=O (centres unmarked) [HA-966, 3-amino-1-hydroxy-2-pyrrolidone]				agonist/antagonist activity at the glycine site [1]: weak antagonists
O=C(O)Cn1c(=O)c(=O)[nH]c2cc(Cl)ccc21 [Example 6, 1-Carboxymethyl-6-chloroquinoxaline-2,3(1H,4H)-dione]	394	520	3400	
O=C(O)C(c1ccccc1)n1c(=O)c(=O)[nH]c2ccccc21 (centres unmarked) [Example 10, 1-(1-Carboxy-1-phenylmethyl)quinoxaline-2,3(1H,4H)-dione]	2620	8000		
O=C(O)Cn1c(=O)c(=O)[nH]c2cc(Br)c(Br)cc21 [Example 12, 1-Carboxymethyl-6,7-dibromoquinoxaline-2,3(1H,4H)-dione]	127	849	390	
CCCCC(C(=O)O)n1c(=O)c(=O)[nH]c2cc(Cl)c(Cl)cc21 (centres unmarked) [Example 16, 1-((1-carboxy)pentyl)-6,7-dichloroquinoxaline-2,3(1H,4H)-dione]		409	100	
CCCCC(C(=O)O)n1c(=O)c(=O)[nH]c2ccccc21 (centres unmarked) [Example 8, 1-((1-Carboxy)pentyl)-quinoxaline-2,3(1H,4H)-dione]	1880	2200	770	
O=C(O)Cn1c(=O)c(=O)[nH]c2cc(F)c(F)cc21 [Example 4, 1-Carboxymethyl-6,7-difluoroquinoxaline-2,3(1H,4H)-dione]	328	500	118	
O=C(O)Cn1c(=O)c(=O)[nH]c2ccc([N+](=O)[O-])cc21 [Example 19, 1-Carboxymethyl-7-nitroquinoxaline-2,3(1H,4H)-dione]		7000		
O=C(O)c1cc(O)c2ccc(Cl)cc2n1 [7-chlorokynurenate]				agonist/antagonist activity at the glycine site [1]: quite strong, but non-selective antagonists of glycine at the glycine site
